Test results: patent US20150307938A1, “METHOD TO IDENTIFY A NOVEL CLASS OF IMMUNOLOGIC ADJUVANTS” (Lancell, L.L.C., priority 2011, published 2015)

Test system: skin
Assay: Affymetrix microarray of skin, DBP-4 hr and analogs vs. untreated; gene selection by log-2 fold change, Wilcoxon, Kendall tau (Tables 8, 9)
Type: in vivo, mouse
Conditions: DBP-4 hr

SMILES: CCCCOC(=O)c1ccccc1C(=O)OCCCC [DBP, dibutylphthalate]
- DBP Expression: Nr4a2 (NM_013613_at): 7.45
- DBP Expression: Ccl7 (NM_013654_at): 8.86
- DBP Expression: Plk3 (NM_013807_at): 8.72
- DBP Expression: Bcar3 (NM_013867_at): 7.96
- DBP Expression: Clic4 (NM_013885_at): 9.05
- DBP Expression: Rgs1 (NM_015811_at): 7.35
- DBP Expression: Aqp3 (NM_016689_at): 10.49
- DBP Expression: Map3k6 (NM_016693_at): 8.79
- DBP Expression: Krt35 (NM_016880_at): 5.45
- DBP Expression: Ccl20 (NM_016960_at): 11.11
- DBP Expression: Nfil3 (NM_017373_at): 8.13
- DBP Expression: Arc (NM_018790_at): 6.81
- DBP Expression: Cd86 (NM_019388_at): 7.42
- DBP Expression: Nfkb2 (NM_019408_at): 8.26
- DBP Expression: Ramp3 (NM_019511_at): 7.94
- DBP Expression: Pde4b (NM_019840_at): 8.96
- DBP Expression: Clec7a (NM_020008_at): 9.14
- DBP Expression: Angptl4 (NM_020581_at): 9.51
- DBP Expression: Pmaip1 (NM_021451_at): 8.41
- DBP Expression: Gpr35 (NM_022320_at): 5.63
- DBP Expression: Ptges (NM_022415_at): 8.31
- DBP Expression: Cxcl16 (NM_023158_at): 8.99
- DBP Expression: Zfp593 (NM_024215_at): 6.14
- DBP Expression: Pqlc1 (NM_025861_at): 10.20
- DBP Expression: Efhd2 (NM_025994_at): 10.57
- DBP Expression: Slc39a8 (NM_026228_at): 6.13
- DBP Expression: Dusp6 (NM_026268_at): 10.59
- DBP Expression: 1810011010Rik (NM_026931_at): 9.68
- DBP Expression: Pvr (NM_027514_at): 6.71
- DBP Expression: 1810055G02Rik (NM_028077_at): 8.40
- DBP Expression: Rnf19b (NM_029219_at): 8.99
- DBP Expression: Slc10a6 (NM_029415_at): 9.28
- DBP Expression: Abcc3 (NM_029600_at): 7.87
- DBP Expression: 1600029D21Rik (NM_029639_at): 10.16
- DBP Expression: Klrb 1b (NM_030599_at): 6.58
- DBP Expression: Il6 (NM_031168_at): 6.41
- DBP Expression: Bcl3 (NM_033601_at): 8.92
- DBP Expression: Epgn (NM_053087_at): 9.09
- DBP Expression: Otud7a (NM_130880_at): 7.23
- DBP Expression: Ier3 (NM_133662_at): 11.24
- DBP Expression: Prss22 (NM_133731_at): 7.96
- DBP Expression: Errfi1 (NM_133753_at): 10.14
- DBP Expression: Uap1 (NM_133806_at): 9.16
- DBP Expression: Stk17b (NM_133810_at): 9.70
- DBP Expression: Havcr2 (NM_134250_at): 7.20
- DBP Expression: Cytip (NM_139200_at): 9.90
- DBP Expression: Slc39a14 (NM_144808_at): 6.31
- DBP Expression: Cd207 (NM_144943_at): 10.32
- DBP Expression: Pyy (NM_145435_at): 9.16
- DBP Expression: Deptor (NM_145470_at): 9.12
- DBP Expression: Smox (NM_145533_at): 8.07
- DBP Expression: Arid5a (NM_145996_at): 7.61
- DBP Expression: Slc25a25 (NM_146118_at): 8.10
- DBP Expression: Kctd11 (NM_153143_at): 9.35
- DBP Expression: Dusp7 (NM_153459_at): 8.85
- DBP Expression: Adamts4 (NM_172845_at): 6.21
- DBP Expression: Fam43a (NM_177632_at): 9.07
- DBP Expression: Coro2a (NM_178893_at): 7.02
- DBP Expression: Gyk (NM_212444_at): 9.63
- DBP Expression: Il4ra (NM_001008700_at): 7.47
- DBP Expression: Il1rl1 (NM_001025602_at): 8.40
- DBP Expression: Zbtb16 (NM_001033324_at): 6.93
- DBP Expression: Deptor (NM_001037937_at): 9.12
- DBP Expression: Cd44 (NM_001039150_at): 9.82
- DBP Expression: Cd44 (NM_001039151_at): 9.82
- DBP Expression: Irs2 (NM_001081212_at): 8.35
- DBP Expression: Pprc1 (NM_001081214_at): 8.81
- DBP Expression: Gpr35 (NM_001104529_at): 5.63
- DBP Expression: Crem (NM_001110850_at): 6.91
- DBP Expression: Crem (NM_001110853_at): 6.26
- DBP Expression: Crem (NM_001110854_at): 6.91
- DBP Expression: Crem (NM_001110855_at): 6.91
- DBP Expression: Crem (NM_001110856_at): 6.91
- DBP Expression: Crem (NM_001110857_at): 6.26
- DBP Expression: Crem (NM_001110858_at): 6.26
- DBP Expression: Crem (NM_001110859_at): 6.26
- DBP Expression: Slc39a8 (NM_001135149_at): 6.13
- DBP Expression: Slc39a8 (NM_001135150_at): 6.13
- DBP Expression: Slc39a14 (NM_001135151_at): 6.31
- DBP Expression: Slc39a14 (NM_001135152_at): 6.31
- DBP Expression: Nr4a2 (NM_001139509_at): 7.45
- DBP Expression: Ccl20 (NM_001159738_at): 11.11
- DBP Expression: Slc25a25 (NM_001164357_at): 8.10
- DBP Expression: Slc25a25 (NM_001164358_at): 8.10
- DBP Expression: Pqlc1 (NM_001164420_at): 10.20
- DBP Expression: Pqlc1 (NM_001164421_at): 10.20
- DBP Expression: Pqlc1 (NM_001164422_at): 10.20
- DBP Expression: Coro2a (NM_001164804_at): 7.02
- DBP Expression: Tnfaip3 (NM_001166402_at): 7.22
